Patent US8367366B2, “Methods and kits for quantitative methyltransferase and demethylase measurements” (The Board of Trustees of the University of Arkansas, priority 2010, dated 2013)

Target: LSD1 (Homo sapiens, UniProt O60341)
Experiment: biochemical
Details: read-out: inhibits LSD1 activity
Experimental: MassSQUIRM Lysine residues were chemically dimethylated using a reductive methylation technique adapted from Rayment, et al (21). […] This reaction was incubated for 2 hours at 4° C. Fresh aliquots of borane dimethylamine and formaldehyde were added and the reaction was again incubated at 4° C. for two hours. A final aliquot of borane dimethylamine was added and the reaction was incubated at 4° C. for ˜16 hours. The reaction was quenched with 80 mM Tris-Cl, pH 7.5. Peptides were incubated with POROS R220 micron beads (Applied Biosystems), collected with a C18 ZipTip™ (Millipore) and spotted for MALDI analysis in 2,5-dihydroxybenzoic acid. Mass spectra of peptides were collected with a MALDI-prOTOF mass spectrometer (PerkinElmerSciex) (61, 62). Spectra were viewed and peak areas extracted using MoverZ™ software (Genomic Solutions). Reaction products were verified by MS^2 with a Thermo LTQ XL mass spectrometer coupled to a NanoLC-2D™ liquid chromatography system (Eksigent).
Demethylase Assay. […] The reaction proceeded for 2 hr at 37° C. Reaction products were collected with POROS R2 20 micron beads for 15 minutes at room temperature, loaded into a C18 ZipTip, eluted in 40 μL 70% acetonitrile/0.1% TFA, lyophilized, and subjected to MassSQUIRM as described above.
LSD1 Inhibition Assay. […]

inhibition at 16700 µM: 96%
SMILES: NNCCc1ccccc1 [phenylethylhydrazine]
